Source: patent US9242987B2, “Heterocyclyl pyrazolopyrimidine analogues as JAK inhibitors” (Cellzome Limited, priority 2009, dated 2016)

How the values were obtained:
JAK2 = biological target: T1, JAK2 (Homo sapiens, UniProt O60674); assay: Kinobeads assay, JAK2; type: binding; conditions: mixed Molt4/Ramos cell lysate, dot blot detection
T1 construct: endogenous in cells; host or cells: Mixed Molt4/Ramos lysate (1:2)
In short: (§1)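 Lysate from Molt4 and Ramos cells combined 1:2 at 10 mg/mL total protein met test compound and an aminopyrido-pyrimidine affinity matrix for 3 h in the cold. Captured JAK2 and JAK3, after elution, were measured by specific-antibody dot blot on an infrared system; dose-response curves yielded IC50.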

JAK3 = biological target: T2, JAK3 (Homo sapiens, UniProt P52333); assay: Kinobeads assay, JAK3; type: binding; conditions: mixed Molt4/Ramos cell lysate, dot blot detection
T2 construct: endogenous in cells; host or cells: Mixed Molt4/Ramos lysate (1:2)
T2 sequence (P52333 1-1124): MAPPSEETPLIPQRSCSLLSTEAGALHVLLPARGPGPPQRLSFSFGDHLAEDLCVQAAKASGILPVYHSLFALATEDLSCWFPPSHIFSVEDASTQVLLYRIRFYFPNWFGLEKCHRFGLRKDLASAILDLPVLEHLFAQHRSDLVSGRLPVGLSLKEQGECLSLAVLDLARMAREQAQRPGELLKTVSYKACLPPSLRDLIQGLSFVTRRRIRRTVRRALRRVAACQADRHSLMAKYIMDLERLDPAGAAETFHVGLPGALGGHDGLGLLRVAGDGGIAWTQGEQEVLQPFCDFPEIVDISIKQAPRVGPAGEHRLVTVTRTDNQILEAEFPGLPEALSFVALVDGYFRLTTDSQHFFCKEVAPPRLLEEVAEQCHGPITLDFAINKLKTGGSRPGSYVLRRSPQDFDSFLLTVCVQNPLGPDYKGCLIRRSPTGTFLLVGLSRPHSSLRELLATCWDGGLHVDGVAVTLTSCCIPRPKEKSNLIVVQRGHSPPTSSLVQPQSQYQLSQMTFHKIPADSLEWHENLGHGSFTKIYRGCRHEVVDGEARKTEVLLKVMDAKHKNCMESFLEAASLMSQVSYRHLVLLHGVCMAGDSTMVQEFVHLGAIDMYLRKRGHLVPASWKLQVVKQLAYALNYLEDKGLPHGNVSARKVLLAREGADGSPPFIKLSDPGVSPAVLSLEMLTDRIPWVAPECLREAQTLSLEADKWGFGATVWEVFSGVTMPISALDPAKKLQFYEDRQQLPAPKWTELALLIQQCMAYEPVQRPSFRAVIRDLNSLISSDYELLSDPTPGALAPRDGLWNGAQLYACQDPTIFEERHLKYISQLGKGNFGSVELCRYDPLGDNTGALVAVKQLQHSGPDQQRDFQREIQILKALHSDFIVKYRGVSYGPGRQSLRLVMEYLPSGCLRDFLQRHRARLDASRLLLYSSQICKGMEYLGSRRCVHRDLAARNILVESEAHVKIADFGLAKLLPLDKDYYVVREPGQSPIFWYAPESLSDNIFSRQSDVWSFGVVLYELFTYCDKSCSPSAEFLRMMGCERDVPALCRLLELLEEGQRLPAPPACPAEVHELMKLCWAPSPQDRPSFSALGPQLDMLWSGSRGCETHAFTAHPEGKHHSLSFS
In short: as §1

T1 sequence (O60674 whole entry): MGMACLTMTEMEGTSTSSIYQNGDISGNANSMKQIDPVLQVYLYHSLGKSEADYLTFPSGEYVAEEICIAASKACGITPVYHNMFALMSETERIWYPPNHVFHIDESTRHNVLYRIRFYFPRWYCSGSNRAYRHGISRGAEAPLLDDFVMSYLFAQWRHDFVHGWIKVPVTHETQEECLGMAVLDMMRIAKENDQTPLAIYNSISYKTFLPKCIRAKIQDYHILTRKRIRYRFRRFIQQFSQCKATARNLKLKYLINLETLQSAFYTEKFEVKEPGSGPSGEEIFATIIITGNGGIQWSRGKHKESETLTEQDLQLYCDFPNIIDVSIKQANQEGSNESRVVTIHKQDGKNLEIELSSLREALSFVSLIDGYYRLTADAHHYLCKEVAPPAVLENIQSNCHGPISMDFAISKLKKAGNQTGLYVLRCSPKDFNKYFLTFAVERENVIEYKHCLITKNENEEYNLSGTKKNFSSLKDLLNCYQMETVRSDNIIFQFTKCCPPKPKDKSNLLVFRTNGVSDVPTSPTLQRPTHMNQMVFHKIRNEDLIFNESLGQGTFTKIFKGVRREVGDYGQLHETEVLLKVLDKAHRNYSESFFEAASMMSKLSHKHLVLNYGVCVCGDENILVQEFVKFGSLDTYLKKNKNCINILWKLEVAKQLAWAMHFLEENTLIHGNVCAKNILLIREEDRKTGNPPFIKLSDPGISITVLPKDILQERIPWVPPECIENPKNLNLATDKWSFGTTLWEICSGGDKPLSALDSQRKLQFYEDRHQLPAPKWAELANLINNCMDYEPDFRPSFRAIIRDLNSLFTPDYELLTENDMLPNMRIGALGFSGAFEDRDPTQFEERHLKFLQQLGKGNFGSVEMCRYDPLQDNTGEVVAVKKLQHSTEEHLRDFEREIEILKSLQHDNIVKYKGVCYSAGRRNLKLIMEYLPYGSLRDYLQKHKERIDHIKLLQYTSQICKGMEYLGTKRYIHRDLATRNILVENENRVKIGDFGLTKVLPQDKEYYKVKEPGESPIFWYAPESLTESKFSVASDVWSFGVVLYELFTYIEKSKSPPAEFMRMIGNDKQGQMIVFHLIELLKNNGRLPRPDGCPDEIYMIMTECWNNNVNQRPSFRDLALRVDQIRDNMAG

## Cc1nn(CC(F)F)cc1Nc1ncc2cnn(Cc3cc(F)ccc3F)c2n1 [Example 150, 1-(2,5-Difluorobenzyl)-N-(1-(2,2-difluoroethyl)-3-methyl-1H-pyrazol-4-yl)-1H-pyrazolo[3,4-d]pyrimidin-6-amine]
JAK2
  IC50: 1000 to 10000 nM
JAK3
  IC50: < 100 nM

## Cn1cc(Nc2ncc3cnn(Cc4ccccc4NS(=O)(=O)CC(F)(F)F)c3n2)cn1 [Example 134]
JAK2
  IC50: 1000 to 10000 nM
JAK3
  IC50: < 100 nM

## N#Cc1ccccc1Cn1ncc2cnc(Nc3cnn(CC(F)F)c3)nc21 [Example 39, 2-((6-(1-(2,2-Difluoroethyl)-1H-pyrazol-4-ylamino)-1H-pyrazolo[3,4-d]pyrimidin-1-yl)methyl)benzonitrile]
JAK2
  IC50: 1000 to 10000 nM
JAK3
  IC50: < 100 nM

## Cc1nc(-n2ncc3cnc(Nc4cnn(C)c4)nc32)ccc1NS(C)(=O)=O [Example 55, N-(2-Methyl-6-(6-(1-methyl-1H-pyrazol-4-ylamino)-1H-pyrazolo[3,4-d]pyrimidin-1-yl)pyridin-3-yl)methanesulfonamide]
JAK2
  IC50: 1000 to 10000 nM
JAK3
  IC50: 100 to 1000 nM

## Cn1cc(Nc2ncc3cnn(Cc4cccc(OCC(N)=O)c4)c3n2)cn1 [Example 209]
JAK2
  IC50: 1000 to 10000 nM
JAK3
  IC50: < 100 nM

## Cn1cc(Nc2ncc3cnn(-c4ccc(Cl)cc4)c3n2)cn1 [Example 57, 1-(4-Chlorophenyl)-N-(1-methyl-1H-pyrazol-4-yl)-1H-pyrazolo[3,4-d]pyrimidin-6-amine]
JAK2
  IC50: ≥ 10000 nM
JAK3
  IC50: 100 to 1000 nM

## Cc1nn(CCO)cc1Nc1ncc2cnn(Cc3ccccc3)c2n1 [Example 113, 2-(4-((1-Benzyl-1H-pyrazolo[3,4-d]pyrimidin-6-yl)amino)-3-methyl-1H-pyrazol-1-yl)ethanol]
JAK2
  IC50: 1000 to 10000 nM
JAK3
  IC50: < 100 nM

## Cn1cc(Nc2ncc3cnn(Cc4c(F)ccc(F)c4F)c3n2)cn1 [Example 98, N-(1-Methyl-1H-pyrazol-4-yl)-1-(2,3,6-trifluorobenzyl)-1H-pyrazolo[3,4-d]pyrimidin-6-amine]
JAK2
  IC50: 100 to 1000 nM
JAK3
  IC50: < 100 nM

## Cn1cc(Nc2ncc3cnn(Cc4ccccc4C(F)(F)F)c3n2)cn1 [Example 65, N-(1-Methyl-1H-pyrazol-4-yl)-1-(2-(trifluoromethyl)benzyl)-1H-pyrazolo[3,4-d]pyrimidin-6-amine]
JAK2
  IC50: 1000 to 10000 nM
JAK3
  IC50: < 100 nM

## OCCn1cc(Nc2ncc3cnn(Cc4c(F)c(F)cc(N5CCNCC5)c4F)c3n2)cn1 [Example 283, 2-(4-((1-(2,3,6-Trifluoro-5-(piperazin-1-yl)benzyl)-1H-pyrazolo[3,4-d]pyrimidin-6-yl)amino)-1H-pyrazol-1-yl)ethanol]
JAK2
  IC50: 1000 to 10000 nM
JAK3
  IC50: < 100 nM

## Cn1cc(Nc2ncc3cnn(Cc4cccc(OC[C@H]5CCCO5)n4)c3n2)cn1 [Example 193, (R)—N-(1-Methyl-1H-pyrazol-4-yl)-1-((6-((tetrahydrofuran-2-yl)methoxy)pyridin-2-yl)methyl)-1H-pyrazolo[3,4-d]pyrimidin-6-amine]
JAK2
  IC50: ≥ 10000 nM
JAK3
  IC50: < 100 nM

## CN(C)c1cccc(Cn2ncc3cnc(Nc4cnn(C)c4)nc32)n1 [Example 183]
JAK2
  IC50: ≥ 10000 nM
JAK3
  IC50: 100 to 1000 nM

## CNC(=O)Cn1cc(Nc2ncc3cnn(Cc4ccccc4C#N)c3n2)cn1 [Example 13, 2-(4-(1-(2-Cyanobenzyl)-1H-pyrazolo[3,4-d]pyrimidin-6-ylamino)-1H-pyrazol-1-yl)-N-methylacetamide]
JAK2
  IC50: 100 to 1000 nM
JAK3
  IC50: < 100 nM

## CC(C)(O)Cn1cc(Nc2ncc3cnn(Cc4ccccc4F)c3n2)cn1 [Example 112, 1-(4-((1-(2-Fluorobenzyl)-1H-pyrazolo[3,4-d]pyrimidin-6-yl)amino)-1H-pyrazol-1-yl)-2-methylpropan-2-ol]
JAK2
  IC50: 1000 to 10000 nM
JAK3
  IC50: < 100 nM

## Cc1nn(CC(F)F)cc1Nc1ncc2cnn(Cc3ccccc3C#N)c2n1 [Example 22, 2-((6-(1-(2,2-Difluoroethyl)-3-methyl-1H-pyrazol-4-ylamino)-1H-pyrazolo[3,4-d]pyrimidin-1-yl)methyl)benzonitrile]
JAK2
  IC50: ≥ 10000 nM
JAK3
  IC50: < 100 nM

## CC(=O)n1cc(Nc2ncc3cnn(Cc4ccccc4F)c3n2)cn1 [Example 95, 1-(4-((1-(2-Fluorobenzyl)-1H-pyrazolo[3,4-d]pyrimidin-6-yl)amino)-1H-pyrazol-1-yl)ethanone]
JAK2
  IC50: 1000 to 10000 nM
JAK3
  IC50: < 100 nM

## Fc1cccc(F)c1Cn1ncc2cnc(Nc3cnn(CC(F)F)c3)nc21 [Example 160, 1-(2,6-Difluorobenzyl)-N-(1-(2,2-difluoroethyl)-1H-pyrazol-4-yl)-1H-pyrazolo[3,4-d]pyrimidin-6-amine]
JAK2
  IC50: 1000 to 10000 nM
JAK3
  IC50: < 100 nM

## Cn1cc(Nc2ncc3cnn(Cc4cc(F)ccc4C(N)=O)c3n2)cn1 [Example 53, 4-Fluoro-2-((6-(1-methyl-1H-pyrazol-4-ylamino)-1H-pyrazolo[3,4-d]pyrimidin-1-yl)methyl)benzamide]
JAK2
  IC50: < 100 nM
JAK3
  IC50: < 100 nM

## CS(=O)(=O)n1cc(Nc2ncc3cnn(Cc4ccccc4F)c3n2)cn1 [Example 96, 1-(2-Fluorobenzyl)-N-(1-(methylsulfonyl)-1H-pyrazol-4-yl)-1H-pyrazolo[3,4-d]pyrimidin-6-amine]
JAK2
  IC50: ≥ 10000 nM
JAK3
  IC50: 100 to 1000 nM

## CNC(=O)Cn1cc(Nc2ncc3cnn(Cc4cccc(F)n4)c3n2)cn1 [Example 291, 2-(4-((1-((6-Fluoropyridin-2-yl)methyl)-1H-pyrazolo[3,4-d]pyrimidin-6-yl)amino)-1H-pyrazol-1-yl)-N-methylacetamide]
JAK2
  IC50: 1000 to 10000 nM
JAK3
  IC50: < 100 nM

## Fc1cccc(Cn2ncc3cnc(Nc4cnn(CC(F)F)c4)nc32)c1F [Example 155, 1-(2,3-Difluorobenzyl)-N-(1-(2,2-difluoroethyl)-1H-pyrazol-4-yl)-1H-pyrazolo[3,4-d]pyrimidin-6-amine]
JAK2
  IC50: 1000 to 10000 nM
JAK3
  IC50: < 100 nM

## Cn1cc(Nc2ncc3cnn(Cc4cc(F)ccc4Cl)c3n2)cn1 [Example 62, 1-(2-Chloro-5-fluorobenzyl)-N-(1-methyl-1H-pyrazol-4-yl)-1H-pyrazolo[3,4-d]pyrimidin-6-amine]
JAK2
  IC50: < 100 nM
JAK3
  IC50: < 100 nM

## COc1nn(CC(F)F)cc1Nc1ncc2cnn(Cc3ccccc3)c2n1 [Example 119, 1-Benzyl-N-(1-(2,2-difluoroethyl)-3-methoxy-1H-pyrazol-4-yl)-1H-pyrazolo[3,4-d]pyrimidin-6-amine]
JAK2
  IC50: ≥ 10000 nM
JAK3
  IC50: 100 to 1000 nM

## COc1ccc(F)cc1Cn1ncc2cnc(Nc3cnn(C)c3)nc21 [Example 91, 1-(5-Fluoro-2-methoxybenzyl)-N-(1-methyl-1H-pyrazol-4-yl)-1H-pyrazolo[3,4-d]pyrimidin-6-amine]
JAK2
  IC50: 100 to 1000 nM
JAK3
  IC50: < 100 nM
